14 compounds from ChEMBL document CHEMBL5126546, “Advancements in the development of multi-target directed ligands for the treatment of Alzheimer's disease” (Bioorg Med Chem, 2022) can be followed below.

Assay [1] concerns the target T1, Gamma-secretase (Homo sapiens) (UniProt Q96BI3+Q9NZ42+Q8WW43+P49768+Q92542+P49810). In words: Inhibition of gamma secretase in human H4 cells expressing human wild type APP assessed as reduction in amyloid beta 1-42 level at 100 uM for 12 hrs by ELISA. Format: cell-based.
Assay [2] addresses T1, Gamma-secretase (Homo sapiens). The experiment in a line: Inhibition of gamma secretase in human H4 cells expressing human wild type APP assessed as reduction in amyloid beta 1-40 level at 100 uM for 12 hrs by ELISA. The class given is cell-based.
Assay [3] concerns the target Amine oxidase [flavin-containing] B (Homo sapiens, UniProt P27338). The experiment in a line: Inhibition of recombinant human MAO-B using p-tyramine as substrate preincubated for 15 mins followed by substrate addition and measured after 30 mins by Amplex Red reagent based fluorometric analysis.
Assay [4] deals with Amine oxidase [flavin-containing] A (Homo sapiens, UniProt P21397). In words: Inhibition of recombinant human MAO-A using p-tyramine as substrate preincubated for 15 mins followed by substrate addition and measured after 30 mins by Amplex Red reagent based fluorometric analysis.
In assay [5] the target is T2, Acetylcholinesterase (Homo sapiens, UniProt P22303). The experiment in a line: Inhibition of AChE (unknown origin) by spectrophotometric based Ellman's method.
The target in assay [6] is T3, Cholinesterase (Homo sapiens, UniProt P06276). In words: Inhibition of BuChE (unknown origin) by spectrophotometric based Ellman's method.
Assay [7] addresses T4, Acetylcholinesterase (Electrophorus electricus, UniProt O42275). In words: Inhibition of Electrophorus electricus AChE using acetylthiocholine iodide as substrate preincubated for 5 mins followed by substrate addition and measured for 2 mins by spectrophotometric based Ellman's method.
For assay [8], the target named is T5, Cholinesterase (Equus caballus, UniProt P81908). In words: Inhibition of equine serum BuChE using butyrylthiocholine iodide as substrate preincubated for 5 mins followed by substrate addition and measured for 2 mins by spectrophotometric based Ellman's method.
Assay [9] can be described thus: Selectivity index, ratio of IC50 for inhibition of equine serum BuChE to IC50 for inhibition of electric eel AChE.
For assay [10], the target named is Fatty-acid amide hydrolase 1 (Homo sapiens, UniProt O00519). The experiment in a line: Inhibition of FAAH (unknown origin) using 7-amino-4-methylcoumarin-arachidonamide as substrate preincubated for 5 mins followed by substrate addition and measured after 30 mins by fluorescence based assay.
The target in assay [11] is T4, Acetylcholinesterase. The experiment in a line: Inhibition of Electrophorus electricus AchE using acetylthiocholine iodide as substrate preincubated for 15 mins followed by substrate addition and measured for 6 mins by DTNB reagent based Ellman's method.
The target of assay [12] is T5, Cholinesterase. The experiment in a line: Inhibition of equine serum BuChE using butyrylthiocholine iodide as substrate by Ellman's method.
The target in assay [13] is T2, Acetylcholinesterase. The experiment in a line: Inhibition of recombinant human AChE using acetylthiocholine iodide as substrate by Ellman's method.
Assay [14] has as its system SK-N-MC. In words: Antiproliferative activity against human SK-N-MC cells assessed as reduction in cell proliferation incubated for 72 hrs by MTT assay. Format: functional, cell-based.
Assay [15] has as its system Rattus norvegicus. In words: Antiinflammatory activity in formalin induced Sprague-Dawley rat chronic inflammation model assessed as inhibition of paw edema at 50 mg/kg, po for 1 hr followed by formalin injection for 5 days relative to control. Particulars: time 5 day. The class given is functional. The arrangement: scale not given: the % may be the effect or the level left.

In assay [16] the target is Beta-secretase 1 (Homo sapiens, UniProt P56817). The experiment in a line: Inhibition of recombinant human BACE-1 using MCA-SEVNLDAEFR-Ednp-KRR-NH2.3TFA as substrate incubated for 2 hrs by Varioskan-flash multimode plate reader analysis.
In assay [17] the test system is Rattus norvegicus. The experiment in a line: Antiinflammatory activity in carrageenan induced Sprague-Dawley rat acute inflammation model assessed as inhibition of paw edema at 50 mg/kg, po for 1 hr followed by carrageenan injection snd measured after 3 hrs relative to control. The class given is functional. More on the design: scale not given: the % may be the effect or the level left. The note with it: time 4 hrs.

Assay [18] concerns the target T5, Cholinesterase. The experiment in a line: Inhibition of horse serum BuChE using butyrylthiocholine chloride as substrate by spectrophotometric based Ellman's method.
Assay [19] concerns the target T4, Acetylcholinesterase. The experiment in a line: Inhibition of electric eel AChE using acetylthiocholine iodide as substrate by spectrophotometric based Ellman's method.
Assay [20] deals with Microtubule-associated protein tau (Homo sapiens) (UniProt P10636). The experiment in a line: Inhibition of tau aggregation (unknown origin) at 20 uM for 72 hrs by thioflavin S based fluorescence analysis.
Assay [21] has as its target T5, Cholinesterase. The experiment in a line: Inhibition of equine serum BuChE using butyrylthiocholine iodide as substrate preincubated for 5 mins followed by substrate addition and measured after 5 mins by Ellman's method.
The target in assay [22] is T4, Acetylcholinesterase. The experiment in a line: Inhibition of Electrophorus electricus AchE using acetylthiocholine iodide as substrate preincubated for 5 mins followed by substrate addition and measured after 5 mins by Ellman's method.
Assay [23] deals with SH-SY5Y. In words: Cytotoxicity against human SH-SY5Y cells assessed as reduction in cell viability for 24 hrs by MTT assay. The class given is functional, cell-based.
Assay [24] has as its target T3, Cholinesterase. In words: Inhibition of recombinant human BuChE using butyrylthiocholine iodide as substrate preincubated for 5 mins followed by substrate addition by Ellman's method.
The target of assay [25] is T2, Acetylcholinesterase. The experiment in a line: Inhibition of recombinant human AChE using acetylthiocholine iodide as substrate preincubated for 5 mins followed by substrate addition by Ellman's method.
Assay [26] deals with HepG2. In words: Cytotoxicity against human HepG2 cells assessed as reduction in cell viability for 24 hrs by MTT assay. The class given is functional, cell-based. The note with it: HepG2, 24 h.
The target in assay [27] is T2, Acetylcholinesterase. In words: Inhibition of recombinant human AChE using Amplex red, acetylthiocholine as substrate preincubated for 15 mins followed by substrate addition and measured after 30 mins by microplate fluorescence reader analysis.

T2 sequence (P22303 whole entry): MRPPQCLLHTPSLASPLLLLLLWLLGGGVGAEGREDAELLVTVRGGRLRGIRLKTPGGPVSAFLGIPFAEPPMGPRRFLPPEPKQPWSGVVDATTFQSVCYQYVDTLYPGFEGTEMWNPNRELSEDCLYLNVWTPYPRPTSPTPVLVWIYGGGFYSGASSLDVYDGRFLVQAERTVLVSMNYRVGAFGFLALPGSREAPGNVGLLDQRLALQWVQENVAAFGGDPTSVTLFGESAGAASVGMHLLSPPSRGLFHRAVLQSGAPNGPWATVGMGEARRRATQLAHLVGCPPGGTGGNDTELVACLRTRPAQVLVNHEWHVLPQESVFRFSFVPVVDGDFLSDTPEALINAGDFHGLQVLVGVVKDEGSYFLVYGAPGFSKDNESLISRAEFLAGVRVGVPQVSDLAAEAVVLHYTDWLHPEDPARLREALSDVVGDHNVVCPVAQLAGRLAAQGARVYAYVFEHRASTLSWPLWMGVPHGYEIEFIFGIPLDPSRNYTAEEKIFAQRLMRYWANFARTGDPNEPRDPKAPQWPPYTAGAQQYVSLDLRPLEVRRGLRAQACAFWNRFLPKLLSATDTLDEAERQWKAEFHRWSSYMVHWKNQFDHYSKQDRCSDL
T4 sequence (O42275 whole entry): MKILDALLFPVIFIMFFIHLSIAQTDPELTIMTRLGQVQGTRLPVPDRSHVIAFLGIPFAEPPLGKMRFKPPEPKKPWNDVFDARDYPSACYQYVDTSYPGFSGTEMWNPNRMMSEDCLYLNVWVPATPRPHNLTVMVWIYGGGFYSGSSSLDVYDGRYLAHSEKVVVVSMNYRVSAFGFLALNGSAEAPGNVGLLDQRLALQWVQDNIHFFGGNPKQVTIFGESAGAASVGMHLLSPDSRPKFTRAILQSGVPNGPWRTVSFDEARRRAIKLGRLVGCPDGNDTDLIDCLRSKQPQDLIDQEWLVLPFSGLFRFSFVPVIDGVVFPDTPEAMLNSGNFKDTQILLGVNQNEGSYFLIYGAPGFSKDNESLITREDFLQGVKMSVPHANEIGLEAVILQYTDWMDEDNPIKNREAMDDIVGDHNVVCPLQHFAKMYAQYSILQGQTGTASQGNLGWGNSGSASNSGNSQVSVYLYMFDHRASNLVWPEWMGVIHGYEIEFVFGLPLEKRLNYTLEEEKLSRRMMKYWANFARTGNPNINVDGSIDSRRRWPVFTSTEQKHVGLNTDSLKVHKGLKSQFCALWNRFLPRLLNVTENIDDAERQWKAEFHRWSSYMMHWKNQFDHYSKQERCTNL
T5 sequence (P81908 whole entry): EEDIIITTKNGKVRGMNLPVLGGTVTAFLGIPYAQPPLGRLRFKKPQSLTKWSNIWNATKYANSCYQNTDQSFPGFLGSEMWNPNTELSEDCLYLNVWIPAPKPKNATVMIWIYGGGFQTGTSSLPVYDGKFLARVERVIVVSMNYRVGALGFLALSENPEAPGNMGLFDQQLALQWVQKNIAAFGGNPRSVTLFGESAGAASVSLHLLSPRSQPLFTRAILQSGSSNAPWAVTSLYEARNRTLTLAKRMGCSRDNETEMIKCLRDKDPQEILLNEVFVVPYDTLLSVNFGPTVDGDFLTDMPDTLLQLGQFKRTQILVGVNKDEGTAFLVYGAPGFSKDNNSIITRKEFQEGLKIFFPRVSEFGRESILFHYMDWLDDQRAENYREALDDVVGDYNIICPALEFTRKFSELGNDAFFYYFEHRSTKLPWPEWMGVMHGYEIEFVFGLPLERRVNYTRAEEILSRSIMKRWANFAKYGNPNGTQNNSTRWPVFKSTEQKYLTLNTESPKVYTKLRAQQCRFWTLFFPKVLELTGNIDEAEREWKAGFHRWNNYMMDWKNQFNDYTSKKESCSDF
T3 sequence (P06276 whole entry): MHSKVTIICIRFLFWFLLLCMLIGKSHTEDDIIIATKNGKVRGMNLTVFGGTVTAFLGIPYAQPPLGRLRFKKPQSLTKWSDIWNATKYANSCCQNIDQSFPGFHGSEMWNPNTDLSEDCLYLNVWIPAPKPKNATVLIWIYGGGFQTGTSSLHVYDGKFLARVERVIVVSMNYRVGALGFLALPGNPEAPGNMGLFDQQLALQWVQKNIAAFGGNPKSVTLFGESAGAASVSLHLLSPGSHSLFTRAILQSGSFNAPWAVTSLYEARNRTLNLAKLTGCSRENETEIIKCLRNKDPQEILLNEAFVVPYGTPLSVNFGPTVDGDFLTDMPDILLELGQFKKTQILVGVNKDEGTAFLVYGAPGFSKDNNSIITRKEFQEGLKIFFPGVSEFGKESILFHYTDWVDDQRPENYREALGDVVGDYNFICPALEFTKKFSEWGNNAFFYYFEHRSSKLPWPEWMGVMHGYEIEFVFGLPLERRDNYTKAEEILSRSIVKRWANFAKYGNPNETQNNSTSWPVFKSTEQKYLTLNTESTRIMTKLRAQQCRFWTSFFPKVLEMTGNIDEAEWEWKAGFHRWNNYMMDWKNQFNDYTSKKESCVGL
Amine oxidase [flavin-containing] A, sequence (P21397 whole entry): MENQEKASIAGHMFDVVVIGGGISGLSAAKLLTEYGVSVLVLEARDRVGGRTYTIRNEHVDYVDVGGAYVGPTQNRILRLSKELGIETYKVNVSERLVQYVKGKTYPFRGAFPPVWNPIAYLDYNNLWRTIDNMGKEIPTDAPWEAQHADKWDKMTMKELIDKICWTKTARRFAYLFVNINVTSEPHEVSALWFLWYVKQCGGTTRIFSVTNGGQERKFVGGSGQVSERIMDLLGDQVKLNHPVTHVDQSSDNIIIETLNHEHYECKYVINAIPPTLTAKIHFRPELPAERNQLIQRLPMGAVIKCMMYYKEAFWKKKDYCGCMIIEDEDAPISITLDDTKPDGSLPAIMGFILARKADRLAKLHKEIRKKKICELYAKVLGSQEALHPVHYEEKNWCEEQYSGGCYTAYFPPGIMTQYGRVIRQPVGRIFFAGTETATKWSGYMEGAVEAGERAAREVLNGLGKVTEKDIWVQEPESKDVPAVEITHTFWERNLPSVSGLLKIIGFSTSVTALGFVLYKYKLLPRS
Fatty-acid amide hydrolase 1, sequence (O00519 whole entry): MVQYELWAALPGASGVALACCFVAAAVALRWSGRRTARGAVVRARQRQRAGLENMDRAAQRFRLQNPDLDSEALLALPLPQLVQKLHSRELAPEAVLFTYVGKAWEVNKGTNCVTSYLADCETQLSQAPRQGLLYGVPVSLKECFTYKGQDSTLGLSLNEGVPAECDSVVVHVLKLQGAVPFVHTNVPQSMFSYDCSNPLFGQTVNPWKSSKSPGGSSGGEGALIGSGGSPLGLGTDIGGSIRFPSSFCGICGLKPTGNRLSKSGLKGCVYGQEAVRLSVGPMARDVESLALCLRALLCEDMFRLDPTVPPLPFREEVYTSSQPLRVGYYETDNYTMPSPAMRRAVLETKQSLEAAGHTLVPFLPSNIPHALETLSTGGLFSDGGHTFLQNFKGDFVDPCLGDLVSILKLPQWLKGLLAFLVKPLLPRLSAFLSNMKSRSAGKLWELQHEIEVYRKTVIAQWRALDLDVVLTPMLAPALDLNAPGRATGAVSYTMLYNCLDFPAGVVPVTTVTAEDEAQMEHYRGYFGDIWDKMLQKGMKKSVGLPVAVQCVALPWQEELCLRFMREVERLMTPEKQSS
Amine oxidase [flavin-containing] B, sequence (P27338 whole entry): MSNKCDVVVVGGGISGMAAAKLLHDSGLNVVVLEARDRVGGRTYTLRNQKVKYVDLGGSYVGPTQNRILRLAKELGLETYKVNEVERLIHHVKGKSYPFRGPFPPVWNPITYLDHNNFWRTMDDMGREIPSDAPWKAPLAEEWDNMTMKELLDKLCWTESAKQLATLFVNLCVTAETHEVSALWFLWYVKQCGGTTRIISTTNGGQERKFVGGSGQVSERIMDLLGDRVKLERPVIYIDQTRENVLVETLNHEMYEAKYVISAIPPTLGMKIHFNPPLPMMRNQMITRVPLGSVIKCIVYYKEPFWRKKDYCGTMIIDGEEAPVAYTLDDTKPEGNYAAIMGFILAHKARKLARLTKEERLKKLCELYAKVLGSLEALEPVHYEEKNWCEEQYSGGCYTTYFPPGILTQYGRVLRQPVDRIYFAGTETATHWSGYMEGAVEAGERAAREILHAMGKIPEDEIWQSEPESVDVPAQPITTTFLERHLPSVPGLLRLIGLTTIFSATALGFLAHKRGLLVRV
Microtubule-associated protein tau (Homo sapiens), sequence (P10636 whole entry): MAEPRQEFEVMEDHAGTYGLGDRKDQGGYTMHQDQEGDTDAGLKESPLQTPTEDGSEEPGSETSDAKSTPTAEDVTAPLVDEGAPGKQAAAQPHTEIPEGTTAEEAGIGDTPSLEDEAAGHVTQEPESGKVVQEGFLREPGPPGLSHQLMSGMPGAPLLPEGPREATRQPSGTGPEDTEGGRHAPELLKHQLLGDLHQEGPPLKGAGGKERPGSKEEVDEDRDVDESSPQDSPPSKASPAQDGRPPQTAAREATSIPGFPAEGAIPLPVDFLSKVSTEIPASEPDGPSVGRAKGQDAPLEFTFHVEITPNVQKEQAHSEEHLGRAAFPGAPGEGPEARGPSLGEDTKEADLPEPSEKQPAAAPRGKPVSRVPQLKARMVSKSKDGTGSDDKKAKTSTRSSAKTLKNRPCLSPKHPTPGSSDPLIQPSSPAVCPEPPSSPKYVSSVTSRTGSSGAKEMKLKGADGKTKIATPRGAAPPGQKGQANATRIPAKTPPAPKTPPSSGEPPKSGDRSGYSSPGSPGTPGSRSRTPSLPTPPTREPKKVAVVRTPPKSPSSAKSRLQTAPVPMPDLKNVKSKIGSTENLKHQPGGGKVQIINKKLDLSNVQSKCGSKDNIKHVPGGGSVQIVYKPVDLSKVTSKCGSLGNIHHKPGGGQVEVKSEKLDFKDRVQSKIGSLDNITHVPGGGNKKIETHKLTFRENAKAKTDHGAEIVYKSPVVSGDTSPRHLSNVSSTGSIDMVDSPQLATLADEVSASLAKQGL

As for `O=S(=O)(NC1C2CC3CC(C2)CC1C3)c1cccs1` (configuration not stated), the results for the inhibition in assay [1] and in [2] were 22% and 10%, respectively.

On to `C#CCOc1ccc(-c2cc(-c3ccc(OCCN4CCOCC4)cc3)nc(N)n2)cc1`, for which the concentration for half-maximal inhibition (IC50) in assay [3] is 9.91 µM; in [4], 18.3 µM.

Consider `O=C(OC[C@H]1O[C@@H](OC(=O)c2cc(O)c(O)c(O)c2)[C@H](OC(=O)c2cc(O)c(O)c(O)c2)[C@@H](OC(=O)c2cc(O)c(O)c(O)c2)[C@@H]1O)c1cc(O)c(O)c(O)c1`, for which the IC50 in assay [5] was 11.9 µM; in assay [6] it was 18.3 µM.

Regarding `c1ccc(C[n+]2ccc(-c3nc4ccccc4s3)cc2)cc1`, the IC50 in [7] is 0.014 µM; in [8] it was 0.182 µM.

Consider `Cc1nc(C)c(C(=O)OCCCOC(=O)c2ccccn2)nc1C`, for which the Ratio IC50 in [9] was found to be 1.32e+07.

Consider `CCCCCCCNC(=O)Oc1cccc(CN(C)CCCCCOc2ccc3[nH]c(=O)ccc3c2)c1`, for which the values for the IC50 in assay [10] and in assay [11] were 0.83 µM and 0.39 µM, respectively.

Regarding `CCN1CCN(c2ccc(-c3nc4ccccc4[nH]3)cc2)CC1`, the IC50 was 34.9 µM in assay [12] and 5.18 µM in assay [13].

Take `O=C(N/N=C/c1ccccn1)c1ccc(C(=O)NC23CC4CC(CC(C4)C2)C3)cc1`: the IC50 in [14] stood at 42.4 µM.

`Cc1cc2nc(-c3cnc(N)s3)c(-c3cnc(N)s3)nc2cc1C`: the Activity in [15] stood at 55%; in assay [17] it was 69%. For the same compound, the half-maximal inhibitory concentration (IC50) in assay [16] came out at 3 µM.

Regarding `O=C(N/N=C/Nc1c2c(nc3ccccc13)CCCC2)C12CC3CC(CC(C3)C1)C2`, the concentration for half-maximal inhibition (IC50) in assay [18] is 0.615 µM; in assay [19] it was 6.77 µM.

`CC1=C[C@H]2c3c(O)cc(-c4cc5ccc(O)cc5o4)cc3O[C@@]3(c4ccc(O)cc4O)Oc4cc(O)ccc4[C@H](C1)[C@@H]23` displayed an inhibition in assay [20] of 37.3%.

Take `CCCN1CCN(c2ncc(CCN(C)CCCc3ccccc3)s2)CC1`: the half-maximal inhibitory concentration (IC50) worked out at 14.6 µM in assay [21] and 14 µM in assay [22].

In the case of `COc1ccc2nc3c(c(N)c2c1)C1CC=CC(C3)C1` (configuration not stated), the IC50 in assay [23] worked out at 17.8 µM; in [24], 3.76 µM; in [25], 2.63 µM; in assay [26], 14.9 µM.

For `C#CCOc1cccc(-c2cc(-c3ccc(OCCN4CCOCC4)cc3)nc(C)n2)c1`, the IC50 in [27] turned out to be 0.00954 µM.
